Reference: ChEMBL document CHEMBL5096235, “In Silico Exploration and Biological Evaluation of Bispecific Peptides Derived from Anti-HER2 Antibodies and Peptide-Camptothecin Conjugates for HER2-Positive Breast Cancer” (J Med Chem, 2022)
Each block holds one compound with its values, some of them ahead of it. Activity calls are given as the source filed them. The calls are words filed in the database; no cut-off is given here. Residues, ends and D or L forms follow the SMILES beside them.

Legend:
[1] = Drug uptake in tumor of nude mouse xenografted with HER2-positive human SK-BR-3 cells assessed as increase in fluorescence intensity at 25 uM, iv measured after 2 hrs by IVIS spectrum in vivo imaging analysis; format: ADME, organism-based, Neoplasm
[2] = target: T1, Receptor tyrosine-protein kinase erbB-2 (Homo sapiens, UniProt P04626); experiment: Binding affinity to recombinant HER2 (unknown origin) assessed as dissociation constant by SPR analysis
[3] = Metabolic stability in Sprague-Dawley rat plasma assessed as drug degradation incubated for 120 mins by LC-MS/MS analysis; format: ADME, cell-free; conditions: 2 h
[4] = Metabolic stability in Sprague-Dawley rat plasma assessed as half life incubated for 120 mins by LC-MS/MS analysis; format: ADME, cell-free
[5] = target: T1, Receptor tyrosine-protein kinase erbB-2; experiment: Binding affinity to HER2 in HER-positive human SK-BR-3 cells assessed as increase in fluorescence intensity at 25 uM by Hoechst 33342 staining based confocal microscopic analysis; format: cell-based
SK-BR-3 [6] = experiment: Cytotoxicity against HER-positive human SK-BR-3 cells assessed as inhibition of cell growth incubated for 48 hrs by MTT assay; format: functional, cell-based; conditions: SK-BR-3, 48 h
NCI-N87 = experiment: Cytotoxicity against HER-positive human NCI-N87 cells assessed as inhibition of cell growth incubated for 48 hrs by MTT assay; format: functional, cell-based; conditions: NCI-N87, 48 h
SK-OV-3 = experiment: Cytotoxicity against HER-positive human SK-OV-3 cells assessed as inhibition of cell growth incubated for 48 hrs by MTT assay; format: functional, cell-based; conditions: SK-OV-3, 48 h
MDA-MB-231 = experiment: Cytotoxicity against HER-negative human MDA-MB-231 cells assessed as inhibition of cell growth incubated for 48 hrs by MTT assay; format: functional, cell-based; conditions: MDA-MB-231, 48 h
[7] = Cytotoxicity against human MCF-10A cells assessed as inhibition of cell growth incubated for 48 hrs by MTT assay; format: toxicity, cell-based
SK-BR-3 [8] = experiment: Induction of apoptosis in human SK-BR-3 cells assessed as live cells incubated for 24 hrs by Annexin V-FITC/PI staining based flow cytometry analysis (Rvb= 89.4%); format: functional
SK-BR-3 [9] = experiment: Induction of apoptosis in human SK-BR-3 cells assessed as early apoptotic cells incubated for 24 hrs by Annexin V-FITC/PI staining based flow cytometry analysis (Rvb= 4.37%); format: functional
SK-BR-3 [10] = experiment: Induction of apoptosis in human SK-BR-3 cells assessed as late apoptotic cells incubated for 24 hrs by Annexin V-FITC/PI staining based flow cytometry analysis (Rvb= 5.02%); format: functional
SK-BR-3 [11] = experiment: Induction of apoptosis in human SK-BR-3 cells assessed as dead cells incubated for 24 hrs by Annexin V-FITC/PI staining based flow cytometry analysis (Rvb= 1.21%); format: functional
SK-BR-3 [12] = experiment: Induction of cell cycle arrest in human SK-BR-3 cells assessed as accumulation of cells at S phase incubated for 24 hrs by flow cytometry analysis (reference value: 23%); format: functional
[13] = Toxicity in nude mouse xenografted with human SK-BR-3 cells assessed as effect on alkaline phosphatase level at 8 micromol/kg, iv administered every 3 days for 14 days; format: organism-based; conditions: in vivo, 336 h, dose 8 µmol/kg, time 14 day
[14] = Toxicity in nude mouse xenografted with human SK-BR-3 cells assessed as effect on total protein level at 8 micromol/kg, iv administered every 3 days for 14 days; format: organism-based; conditions: in vivo, 336 h, dose 8 µmol/kg, time 14 day
[15] = Toxicity in nude mouse xenografted with human SK-BR-3 cells assessed as effect on albumin level at 8 micromol/kg, iv administered every 3 days for 14 days; format: organism-based; conditions: in vivo, 336 h, dose 8 µmol/kg, time 14 day
[16] = Toxicity in nude mouse xenografted with human SK-BR-3 cells assessed as effect on globulin level at 8 micromol/kg, iv administered every 3 days for 14 days; format: organism-based; conditions: in vivo, 336 h, dose 8 µmol/kg, time 14 day
[17] = Toxicity in nude mouse xenografted with human SK-BR-3 cells assessed as effect on creatinine level at 8 micromol/kg, iv administered every 3 days for 14 days; format: organism-based; conditions: in vivo, 336 h, dose 8 µmol/kg, time 14 day
[18] = Toxicity in nude mouse xenografted with human SK-BR-3 cells assessed as heart damage at 8 micromol/kg, iv administered every 3 days for 14 days by H and E staining based analysis; format: organism-based; conditions: in vivo, 336 h, dose 8 µmol/kg, time 14 day
[19] = Toxicity in nude mouse xenografted with human SK-BR-3 cells assessed as liver damage at 8 micromol/kg, iv administered every 3 days for 14 days by H and E staining based analysis; format: organism-based; conditions: in vivo, 336 h, dose 8 µmol/kg, time 14 day
[20] = Toxicity in nude mouse xenografted with human SK-BR-3 cells assessed as spleen damage at 8 micromol/kg, iv administered every 3 days for 14 days by H and E staining based analysis; format: organism-based; conditions: in vivo, 336 h, dose 8 µmol/kg, time 14 day
[21] = Toxicity in nude mouse xenografted with human SK-BR-3 cells assessed as lung damage at 8 micromol/kg, iv administered every 3 days for 14 days by H and E staining based analysis; format: organism-based; conditions: in vivo, 336 h, dose 8 µmol/kg, time 14 day
[22] = Toxicity in nude mouse xenografted with human SK-BR-3 cells assessed as kidney damage at 8 micromol/kg, iv administered every 3 days for 14 days by H and E staining based analysis; format: organism-based; conditions: in vivo, 336 h, dose 8 µmol/kg, time 14 day
[23] = Toxicity in nude mouse xenografted with human SK-BR-3 cells assessed as cellular necrosis at 8 micromol/kg, iv administered every 3 days for 14 days by H and E staining based analysis; format: organism-based; conditions: in vivo, 336 h, dose 8 µmol/kg, time 14 day
[24] = Toxicity in nude mouse xenografted with human SK-BR-3 cells assessed as inflammatory cell infiltration at 8 micromol/kg, iv administered every 3 days for 14 days by H and E staining based analysis; format: organism-based; conditions: in vivo, 336 h, dose 8 µmol/kg, time 14 day

T1 sequence (P04626 whole entry): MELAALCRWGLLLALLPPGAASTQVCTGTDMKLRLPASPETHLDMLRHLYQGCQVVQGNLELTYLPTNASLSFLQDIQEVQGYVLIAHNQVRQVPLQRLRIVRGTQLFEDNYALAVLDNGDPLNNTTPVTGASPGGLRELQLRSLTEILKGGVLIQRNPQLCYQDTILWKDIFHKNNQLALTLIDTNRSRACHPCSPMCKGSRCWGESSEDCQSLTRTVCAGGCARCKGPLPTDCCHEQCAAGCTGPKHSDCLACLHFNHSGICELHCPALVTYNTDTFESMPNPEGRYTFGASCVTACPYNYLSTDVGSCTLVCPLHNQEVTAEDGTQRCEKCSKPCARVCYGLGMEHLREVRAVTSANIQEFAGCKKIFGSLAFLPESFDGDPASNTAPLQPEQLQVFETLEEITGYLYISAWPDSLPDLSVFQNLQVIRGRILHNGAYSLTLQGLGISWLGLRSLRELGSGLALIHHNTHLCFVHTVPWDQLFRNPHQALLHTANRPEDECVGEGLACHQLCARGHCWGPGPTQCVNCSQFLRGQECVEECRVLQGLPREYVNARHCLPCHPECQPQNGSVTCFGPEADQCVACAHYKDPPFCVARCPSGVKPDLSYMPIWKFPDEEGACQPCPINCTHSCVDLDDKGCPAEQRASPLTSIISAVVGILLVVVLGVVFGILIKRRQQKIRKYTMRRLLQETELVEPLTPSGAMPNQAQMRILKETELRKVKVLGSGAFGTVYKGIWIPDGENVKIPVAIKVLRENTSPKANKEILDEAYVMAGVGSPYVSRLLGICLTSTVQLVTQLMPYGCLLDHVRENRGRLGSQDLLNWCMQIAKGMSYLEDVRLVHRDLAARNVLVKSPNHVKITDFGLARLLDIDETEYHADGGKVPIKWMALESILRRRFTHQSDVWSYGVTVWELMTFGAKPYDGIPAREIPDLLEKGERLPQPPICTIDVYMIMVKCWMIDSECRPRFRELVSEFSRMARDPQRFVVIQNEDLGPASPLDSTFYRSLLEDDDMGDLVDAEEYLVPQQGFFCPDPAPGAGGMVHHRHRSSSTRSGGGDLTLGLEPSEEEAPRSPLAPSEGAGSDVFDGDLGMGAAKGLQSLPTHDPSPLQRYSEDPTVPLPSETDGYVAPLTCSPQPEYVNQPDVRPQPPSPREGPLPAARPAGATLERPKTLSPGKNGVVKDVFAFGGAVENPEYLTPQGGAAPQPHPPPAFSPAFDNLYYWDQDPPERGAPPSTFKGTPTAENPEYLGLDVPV

- Drug uptake [1]: Active
SMILES: CC[C@H](C)[C@H](NC(=O)[C@H](CCCNC(=N)N)NC(=O)CNC(=O)[C@H](CS)NC(=O)CNC(=O)[C@H](CCCCN)NC(=O)[C@H](Cc1ccccc1)NC(=O)[C@H](CCCNC(=N)N)NC(=O)[C@H](CCC(N)=O)NC(=O)[C@H](CC(N)=O)NC(=O)[C@H](Cc1ccc(O)cc1)NC(=O)[C@H](Cc1c[nH]c2ccccc12)NC(=O)[C@H](CO)NC(=O)[C@H](CCCNC(=N)N)NC(=O)CNC(=O)[C@H](Cc1c[nH]c2ccccc12)NC(=O)[C@H](CC(N)=O)NC(=O)[C@@H]1CCCN1C(=O)[C@@H](N)CC(=O)NC(=S)Nc1ccc2c(c1)C(=O)OC21c2ccc(O)cc2Oc2cc(O)ccc21)C(=O)N[C@@H](CCCCN)C(=O)N1CCC[C@H]1C(=O)N[C@@H](CCCNC(=N)N)C(=O)N[C@@H](CCCCN)C(=O)NCC(=O)N[C@@H](Cc1ccc(O)cc1)C(=O)N[C@H](C(=O)N[C@@H](CCCNC(=N)N)C(N)=O)[C@@H](C)O

- Kd [2]: 0.151 µM
- Stability [3]: Unstable
- half-life [4]: 15 min
SMILES: CC[C@H](C)[C@H](NC(=O)[C@H](CCCNC(=N)N)NC(=O)CNC(=O)[C@H](CS)NC(=O)CNC(=O)[C@H](CCCCN)NC(=O)[C@H](Cc1ccccc1)NC(=O)[C@H](CCCNC(=N)N)NC(=O)[C@H](CCC(N)=O)NC(=O)[C@H](CC(N)=O)NC(=O)[C@H](Cc1ccc(O)cc1)NC(=O)[C@H](Cc1c[nH]c2ccccc12)NC(=O)[C@H](CO)NC(=O)[C@H](CCCNC(=N)N)NC(=O)CNC(=O)[C@H](Cc1c[nH]c2ccccc12)NC(=O)[C@H](CC(N)=O)NC(=O)[C@@H]1CCCN1C(=O)[C@@H](N)CC(N)=O)C(=O)N[C@@H](CCCCN)C(=O)N1CCC[C@H]1C(=O)N[C@@H](CCCNC(=N)N)C(=O)N[C@@H](CCCCN)C(=O)NCC(=O)N[C@@H](Cc1ccc(O)cc1)C(=O)N[C@H](C(=O)N[C@@H](CCCNC(=N)N)C(=O)O)[C@@H](C)O (H-NPNWGRSWYNQRFKGCGRIKPRKGYTR-OH)

- Activity [5]: Active
- Drug uptake [1]: Active
SMILES: CC[C@H](C)[C@H](NC(=O)[C@H](CCCNC(=N)N)NC(=O)CNC(=O)[C@H](CS)NC(=O)CNC(=O)[C@H](CCCCN)NC(=O)[C@H](Cc1ccccc1)NC(=O)[C@H](CCCNC(=N)N)NC(=O)[C@H](CCC(N)=O)NC(=O)[C@H](CC(N)=O)NC(=O)[C@H](Cc1ccc(O)cc1)NC(=O)[C@H](Cc1c[nH]c2ccccc12)NC(=O)[C@H](CO)NC(=O)[C@H](CCCNC(=N)N)NC(=O)CNC(=O)[C@H](Cc1c[nH]c2ccccc12)NC(=O)[C@H](CC(N)=O)NC(=O)[C@@H]1CCCN1C(=O)[C@@H](N)CC(=O)NC(=S)Nc1ccc2c(c1)C(=O)OC21c2ccc(O)cc2Oc2cc(O)ccc21)C(=O)N[C@@H](CCCCN)C(=O)N1CCC[C@H]1C(=O)N[C@@H](CCCNC(=N)N)C(=O)N[C@@H](CCCCN)C(=O)NCC(=O)N[C@@H](Cc1ccc(O)cc1)C(=O)N[C@H](C(=O)N[C@@H](CCCNC(=N)N)C(=O)O)[C@@H](C)O (HELM PEPTIDE1{D.P.N.W.G.R.S.W.Y.N.Q.R.F.K.G.C.G.R.I.K.P.R.K.G.Y.T.R}|CHEM1{[O=C1OC2(c3ccc(O)cc3Oc3cc(O)ccc32)c2ccc(NC(=S)N[*:1])cc21]}$PEPTIDE1,CHEM1,1:R3-1:R1$$$V2.0)

SMILES: CC[C@@]1(O)C(=O)OCc2c1cc1n(c2=O)Cc2cc3ccccc3nc2-1 [CAMPTOTHECIN]
- IC50 (SK-BR-3 [6]): 0.21 µM
- IC50 (NCI-N87): 2.32 µM
- IC50 (SK-OV-3): 3.82 µM
- IC50 (MDA-MB-231): 1.06 µM
- IC50 at 48 h [7]: 2.58 µM
- Activity (SK-BR-3 [8]): 48.8%
- Activity (SK-BR-3 [9]): 38.6%
- Activity (SK-BR-3 [10]): 12.3%
- Activity (SK-BR-3 [11]): 0.35%
- Activity (SK-BR-3 [12]): 50.8%
- Activity [13]: Non-Toxic
- Activity [14]: Non-Toxic
- Activity [15]: Non-Toxic
- Activity [16]: Non-Toxic
- Activity [17]: Non-Toxic
- Activity [18]: Non-Toxic
- Activity [19]: Non-Toxic
- Activity [20]: Non-Toxic
- Activity [21]: Non-Toxic
- Activity [22]: Non-Toxic
- Activity [23]: Non-Toxic
- Activity [24]: Non-Toxic
